Source: US20260184704A1, “NLRP3 INFLAMMASOME INHIBITORS AND USES THEREOF” (Insilico Medicine IP Limited, priority 2023, published 2026)

Experiments:
NLRP3 = target: T1, NLRP3 (Homo sapiens, UniProt Q96P20); assay: NLRP3 Enzymatic Activity ADP-Glo Assay (Example B-4); assay type: biochemical; conditions: hydrolysis of ATP by NLRP3; NLRP3 15 nM, ATP 1 μM; read-out: NLRP3_ADP-Glo_IC50 (nM), Example B-4
T1 construct: purchased ICE YM2306T-H06MHS
Experimental: Example B-4: NLRP3 Enzymatic Activity ADP-Glo Assay
NLRP3 activity test experiment, measuring the hydrolysis of NLRP3 on the substrate ATP using the ADP-Glo assay. First, after adding an inhibitor containing 0.5% DMSO with Echo, add 5 μL of NLRP3 (ICE, YM2306T-H06MHS) enzyme solution to each well, centrifuge at 1000 rpm for 1 min at room temperature and react for 10 min. Then add 5 μL of ATP (Promega, V915A) substrate solution to each well for 90 min at room temperature; NLRP3 and ATP were prepared in 50 mM HEPES, 10 mM MgCl2, 0.01% Brij-35, 1 mM EGTA, and 2 mM DTT buffers at final concentrations of 15 nM and 1 μM, respectively. Subsequently, 10 μL ADP-Glo reagent solution (Promega, V9102) was added into each assay well, centrifuged at 1000 rpm for 1 min, and then incubated at room temperature for 45 min. Finally, 20 μL ADP-Glo detection solution (Promega, V9102) is added to each well, centrifuged at 1000 rpm for 1 min and reacted for 45 min at room temperature. The luminescence signal values were read using a BMG instrument and the IC50 values were determined by fitting the data to an S-shaped dose-response curve using nonlinear regression.

[1] = test system: THP-1 cells, IL-1β release; assay: IL-1β Release THP-1 Assay (Example B-3); assay type: cell-based; conditions: Homo sapiens; PMA-differentiated THP-1 cells, LPS then Nigericin, IL-1β by Elisa; read-out: Potency, THP-1 IL-1β, IC50 (nM), Example B-3
Experimental: Example B-3: IL-1β Release THP-1 Assay
THP-1 cells Culture RPMI1640 medium, 10% FBS, 1% PS, 55 uM β-Mer at 37° C. & 5% CO2 incubator.
IL-1β Release Detection • 1) Seed THP-1 in complete RPMI 1640 medium containing PMA into 96 well plate coated with poly-L-lysin incubate for 24 hours. • 2) Remove medium, wash the differentiated THP-1 cells with PBS, add FBS free RPMI 1640 medium. • 3) Add LPS and incubate for 3 hours at 37° C. & 5% CO2 incubator. • 4) Add compounds and incubate for 30 minutes at 37° C. & 5% CO2 incubator. • 5) Add Nigericin and incubate for 1 hour at 37° C. & 5% CO2 incubator. • 6) Collect supernatant to test IL-1β by Elisa.
• a) Assay robustness check with DMSO and Low control data:
[formula] • X: cpd concentration • Y: change % • Top and Bottom: Plateaus in same units as Y • logIC50: same log units as X • HillSlope: Slope factor or Hill slope

T1 sequence (Q96P20 whole entry): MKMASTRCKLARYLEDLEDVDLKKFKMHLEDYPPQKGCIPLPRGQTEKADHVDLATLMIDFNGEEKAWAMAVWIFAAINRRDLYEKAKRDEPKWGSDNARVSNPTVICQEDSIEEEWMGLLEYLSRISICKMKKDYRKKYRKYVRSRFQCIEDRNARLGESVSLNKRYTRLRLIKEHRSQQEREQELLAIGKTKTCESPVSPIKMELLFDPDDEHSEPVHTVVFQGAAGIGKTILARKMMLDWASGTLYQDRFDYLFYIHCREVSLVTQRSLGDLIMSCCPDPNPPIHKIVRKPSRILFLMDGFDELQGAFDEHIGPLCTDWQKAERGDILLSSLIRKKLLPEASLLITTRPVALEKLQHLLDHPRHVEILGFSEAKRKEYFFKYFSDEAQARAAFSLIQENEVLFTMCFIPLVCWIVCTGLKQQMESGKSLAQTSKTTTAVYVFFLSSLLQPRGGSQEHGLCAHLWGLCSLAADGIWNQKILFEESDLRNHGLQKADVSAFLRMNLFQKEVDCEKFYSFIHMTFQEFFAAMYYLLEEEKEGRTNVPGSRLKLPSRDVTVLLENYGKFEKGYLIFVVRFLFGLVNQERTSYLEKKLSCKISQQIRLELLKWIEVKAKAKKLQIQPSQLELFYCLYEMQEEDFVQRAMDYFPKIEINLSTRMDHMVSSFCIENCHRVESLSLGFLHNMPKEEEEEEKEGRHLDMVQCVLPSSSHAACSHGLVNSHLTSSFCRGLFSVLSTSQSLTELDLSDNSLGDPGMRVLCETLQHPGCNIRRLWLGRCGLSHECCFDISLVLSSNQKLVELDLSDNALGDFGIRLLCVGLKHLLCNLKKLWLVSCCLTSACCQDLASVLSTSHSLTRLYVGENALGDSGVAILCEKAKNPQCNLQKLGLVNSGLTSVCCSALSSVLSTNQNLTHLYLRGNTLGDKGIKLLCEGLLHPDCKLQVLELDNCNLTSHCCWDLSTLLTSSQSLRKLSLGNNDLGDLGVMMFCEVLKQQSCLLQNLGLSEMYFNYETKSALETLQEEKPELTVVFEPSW

C[C@]1(O)C[C@@H](NC2=NN=C(c3c(C(F)F)cc4c(c3O)CCO4)CS2)C1 [Compound 66]
IC50 (NLRP3): 10 to 100 nM
IC50 [1]: 10 to 100 nM

Cc1cc(C(F)(F)F)cc(O)c1C1=NN=C(N[C@@H]2CCC[C@H](O)C2)SC1 [Compound 7]
IC50 [1]: 10 to 100 nM

Cc1cc(C(F)(F)F)cc(O)c1C1=NN=C(N[C@@H]2CCCN(C)C2)N(C)C1 [Compound 36]
IC50 (NLRP3): 100 to 1000 nM
IC50 [1]: 100 to 1000 nM

Cc1cc2c(cc1C1=NN=C(N[C@@H]3CCCN(C)C3)SC1)CCO2 [Compound 49]
IC50 (NLRP3): > 1000 nM

CNC(=O)CNC1=NN=C(c2c(C)cc(C(F)(F)F)cc2O)CS1 [Compound 32]
IC50 (NLRP3): > 1000 nM

Cc1cc(C(F)(F)F)cc(O)c1C1=NN=C(N[C@@H]2CCCN(C)C2)SC1 [Compound 1]
IC50 (NLRP3): 10 to 100 nM
IC50 [1]: < 10 nM

CC#Cc1cc(C)c(C2=NN=C(N[C@@H]3CCCN(C)C3)SC2)c(O)c1 [Compound 56]
IC50 (NLRP3): 100 to 1000 nM

Cc1cc(C#N)cc(O)c1C1=NN=C(N[C@@H]2CCCN(C)C2)SC1 [Compound 37]
IC50 (NLRP3): 10 to 100 nM
IC50 [1]: 10 to 100 nM

Cc1cc(C(F)(F)F)cc(O)c1C1=NN=C(N[C@H]2C[C@@H](O)C2)SC1 [Compound 24]
IC50 [1]: 100 to 1000 nM

COc1cc(C)c(C2=NN=C(N[C@@H]3CCCN(C)C3)SC2)c(O)c1 [Compound 23]
IC50 (NLRP3): 10 to 100 nM
IC50 [1]: < 10 nM

Cc1cc(C(F)(F)F)cc(O)c1C1=NN=C(N[C@@H]2CCCN(CCO)C2)SC1 [Compound 6]
IC50 [1]: < 10 nM

Cc1cc2occc2c(O)c1C1=NN=C(N[C@H]2C[C@@](C)(O)C2)SC1 [Compound 72]
IC50 (NLRP3): < 10 nM

Cc1cc2c(c(O)c1C1=NN=C(N(C)[C@@H]3CCCN(C)C3)SC1)CCO2 [Compound 55]
IC50 (NLRP3): 100 to 1000 nM

Cc1cc(C(F)(F)F)cc(O)c1C1=NN=C(NCCC(N)=O)SC1 [Compound 43]
IC50 (NLRP3): > 1000 nM

Cc1cc2c(c(O)c1C1=NN=C(NC34CCC(O)(CC3)C4)SC1)CCO2 [Compound 63]
IC50 (NLRP3): 100 to 1000 nM

Cc1cc(C(F)(F)F)c(F)c(O)c1C1=NN=C(N[C@H]2C[C@@](C)(O)C2)SC1 [Compound 48]
IC50 (NLRP3): 10 to 100 nM
IC50 [1]: 100 to 1000 nM

CCN1CCC[C@@H](NC2=NN=C(c3c(C)cc4c(c3O)CCO4)CS2)C1 [Compound 54]
IC50 (NLRP3): < 10 nM

Cc1cc2c(c(O)c1C1=NN=C(N[C@H]3C[C@@](C)(O)C3)SC1)OCC2 [Compound 64]
IC50 (NLRP3): 10 to 100 nM

Cc1cc(C(F)(F)F)cc(O)c1C1=NN=C(N2CCC[C@@H]2[C@@H](C)O)SC1 (single isomer, unassigned) [Compound 33]
IC50 (NLRP3): > 1000 nM

Cc1cc(C(F)(F)F)cc(O)c1C1=NN=C(N[C@H]2C[C@@](C)(O)C2)C(C)(C)S1 [Compound 202]
IC50 (NLRP3): 10 to 100 nM
IC50 [1]: 10 to 100 nM

Cc1cc2c(c(O)c1C1=NN=C(N[C@H]3C[C@@](C)(O)C3)SC1)CCC2 [Compound 50]
IC50 (NLRP3): 10 to 100 nM
IC50 [1]: 10 to 100 nM

Cc1cc(Cl)cc(O)c1C1=NN=C(N[C@H]2C[C@@](C)(O)C2)SC1 [Compound 30]
IC50 (NLRP3): 10 to 100 nM
IC50 [1]: 10 to 100 nM

C[C@]1(O)C[C@@H](NC2=NN=C(c3c(O)cc(C(F)(F)F)cc3Cl)CS2)C1 [Compound 45]
IC50 (NLRP3): 10 to 100 nM
IC50 [1]: 10 to 100 nM

Cc1cc2c(c(O)c1C1=NN=C(N[C@@H]3CCCN(C)C3)CS1)CCO2 [Compound 205]
IC50 (NLRP3): < 10 nM
IC50 [1]: < 10 nM

Cc1cc(C(F)(F)F)cc(OC(F)F)c1C1=NN=C(N[C@H]2C[C@@](C)(O)C2)SC1 [Compound 42]
IC50 (NLRP3): > 1000 nM

CCN1CCC[C@@H](NC2=NN=C(c3c(C)cc4sccc4c3O)CS2)C1 [Compound 46]
IC50 (NLRP3): < 10 nM
IC50 [1]: < 10 nM

Cc1cc2c(c(O)c1C1=NN=C(N[C@H]3C[C@@](C)(N)C3)SC1)CC2 [Compound 68]
IC50 (NLRP3): 10 to 100 nM
IC50 [1]: 10 to 100 nM

Cc1cc2c(c(O)c1C1=NN=C(N[C@]34CC[C@](O)(C3)C4)SC1)CCO2 [Compound 70]
IC50 (NLRP3): 100 to 1000 nM

Cc1cc(C(F)(F)F)cc(O)c1C1=NN=C(N[C@H]2C[C@](O)(C(F)(F)F)C2)SC1 [Compound 29]
IC50 [1]: 10 to 100 nM

Cc1cc(OC(F)F)cc(O)c1C1=NN=C(N[C@@H]2CCCN(C)C2)SC1 [Compound 21]
IC50 [1]: 10 to 100 nM

CC1SC(N[C@@H]2CCCN(C)C2)=NN=C1c1ccc(C(F)(F)F)cc1O (stereo partly shown) [Compound 5]
IC50 [1]: 100 to 1000 nM

Cc1cc2c(c(O)c1C1=NN=C(N[C@H]3C[C@@](C)(O)C3)SC1)COC2 [Compound 62]
IC50 (NLRP3): 100 to 1000 nM

Cc1cc(C(F)(F)F)cc(O)c1C1=NN=C(N2CCC[C@@H]2[C@H](C)O)SC1 (single isomer, unassigned) [Compound 34]
IC50 (NLRP3): > 1000 nM

Cc1cc2c(c(O)c1C1=NN=C(N3CCC4CCN(C)CC43)SC1)CCO2 (stereo not shown) [Compound 51]
IC50 (NLRP3): 10 to 100 nM
IC50 [1]: < 10 nM

Cc1cc(Cl)cc(O)c1C1=NN=C(N[C@H]2C[C@@](C)(N)C2)CS1 [Compound 206]
IC50 (NLRP3): 10 to 100 nM
IC50 [1]: 10 to 100 nM

[2H]C([2H])([2H])c1cc2c(c(O)c1C1=NN=C(N[C@H]3C[C@@](C)(O)C3)SC1)CCO2 [Compound 71]
IC50 (NLRP3): 10 to 100 nM

Cc1c(F)c2c(c(O)c1C1=NN=C(N[C@@H]3CCCN(C)C3)SC1)CCO2 [Compound 57]
IC50 (NLRP3): 10 to 100 nM
IC50 [1]: 10 to 100 nM

Cc1cc(C(F)(F)F)cc(O)c1C1=NN=C(N[C@H]2CN3CCC2CC3)SC1 [Compound 20]
IC50 [1]: 10 to 100 nM

Cc1cc(Cl)cc(O)c1C1=NN=C(N[C@H]2C[C@](C)(N)C2)CS1 [Compound 207]
IC50 (NLRP3): 100 to 1000 nM

C[C@]1(O)C[C@@H](NC2=NN=C(c3c(Cl)cc4c(c3O)CCO4)CS2)C1 [Compound 60]
IC50 (NLRP3): 10 to 100 nM
IC50 [1]: 10 to 100 nM

Cc1cc(C#N)cc(O)c1C1=NN=C(N2CCC3CCN(C)CC32)SC1 (stereo not shown) [Compound 39]
IC50 (NLRP3): 100 to 1000 nM

Cc1cc2c(c(O)c1C1=NN=C(N[C@H]3C[C@](C)(O)C3)SC1)CC2 [Compound 67]
IC50 (NLRP3): 10 to 100 nM
IC50 [1]: 10 to 100 nM

Cc1cc(C(F)(F)F)cc(O)c1C1=NN=C(N[C@@H]2CCCNC2)SC1 [Compound 2]
IC50 [1]: < 10 nM

Cc1cc(C(F)(F)F)cc(O)c1C1=NN=C(N[C@@H]2C[C@H](F)CN(C)C2)SC1 [Compound 9]
IC50 [1]: 10 to 100 nM

Cc1cc(OC(F)F)cc(O)c1C1=NN=C(N[C@H]2C[C@@](C)(O)C2)SC1 [Compound 25]
IC50 (NLRP3): 10 to 100 nM
IC50 [1]: 10 to 100 nM

Cc1c(F)c2c(c(O)c1C1=NN=C(N[C@H]3C[C@@](C)(O)C3)SC1)CCO2 [Compound 61]
IC50 (NLRP3): 10 to 100 nM

Cc1cc(C(F)(F)F)cc(O)c1C1=NN=C(N[C@@H]2C[C@H](O)CN(C)C2)SC1 (single isomer, unassigned) [Compound 16]
IC50 [1]: 10 to 100 nM

Cc1cc(C(F)(F)F)cc(O)c1C1=NN=C(Nc2cc[nH]n2)SC1 [Compound 22]
IC50 [1]: 100 to 1000 nM

Cc1cc(C(F)(F)F)cc(O)c1C1=NN=C(N[C@@H]2CCCN(C)C2)OC1 [Compound 52]
IC50 (NLRP3): > 1000 nM

Cc1cc2c(c(O)c1C1=NN=C(N[C@H]3C[C@](C)(O)C3)SC1)CCO2 [Compound 65]
IC50 (NLRP3): 100 to 1000 nM

C[C@]1(O)C[C@@H](NC2=NN=C(c3c(O)cc(C(F)(F)F)cc3F)CS2)C1 [Compound 41]
IC50 (NLRP3): 100 to 1000 nM

CCN1CCC[C@@H](NC2=NN=C(c3c(C)cc(C(F)(F)F)cc3O)CS2)C1 [Compound 3]
IC50 [1]: < 10 nM

Cc1cc(C(F)(F)F)cc(O)c1C1=NN=C(N[C@H]2C[C@@](C)(O)C2)CS1 [Compound 201]
IC50 (NLRP3): 10 to 100 nM
IC50 [1]: 10 to 100 nM

Cc1cc(Cl)cc(O)c1C1=NN=C(N[C@H]2C[C@@](C)(O)C2)CS1 [Compound 204]
IC50 (NLRP3): 10 to 100 nM
IC50 [1]: < 10 nM

Cc1cc(C(F)(F)F)cc(O)c1C1=NN=C(N[C@@H]2CCN(C)C2)SC1 [Compound 11]
IC50 [1]: 10 to 100 nM

Cc1cc(C(F)(F)F)cc(O)c1C1=NN=C(NC[C@@H](C)O)SC1 [Compound 26]
IC50 [1]: 100 to 1000 nM

Cc1cc2c(c(O)c1C1=NN=C(N[C@H]3C[C@](C)(N)C3)SC1)CC2 [Compound 69]
IC50 (NLRP3): 100 to 1000 nM

Cc1cc(C(F)(F)F)cc(O)c1C1=NN=C(N[C@@H]2CCCN(C3COC3)C2)SC1 [Compound 17]
IC50 [1]: 10 to 100 nM

Cc1cc2sccc2c(O)c1C1=NN=C(N[C@@H]2CCCN(CCO)C2)SC1 [Compound 47]
IC50 (NLRP3): < 10 nM
IC50 [1]: < 10 nM

Cc1cc2c(c(O)c1C1=NN=C(N[C@@H]3CCCN(CCO)C3)SC1)CCO2 [Compound 40]
IC50 (NLRP3): 10 to 100 nM
IC50 [1]: 10 to 100 nM

C[C@]1(O)C[C@@H](NC2=NN=C(c3c(C(F)(F)F)cc4c(c3O)CCO4)CS2)C1 [Compound 58]
IC50 (NLRP3): 10 to 100 nM
IC50 [1]: 10 to 100 nM
